Source: the NIST ThermoML archive (doi:10.1021/acs.jced.5b00105)

Test: xn = mol fraction of the nth substance listed
Settings: 100 kPa, Liquid; for mass density: Vibrating tube method; for viscosity: Concentric cylinders viscometry

CCC1CCCCC1 [ethylcyclohexane] + CC(C)CC(C)(C)C
Settings | mass density [kg/m3] | viscosity [mPa·s]
308.15 K, x1 = 0.1 | 688.43 | –
308.15 K, x1 = 0.2 | 697.49 | –
308.15 K, x1 = 0.3003 | 706.8 | –
308.15 K, x1 = 0.3997 | 716.14 | –
308.15 K, x1 = 0.5002 | 725.74 | –
308.15 K, x1 = 0.6005 | 735.47 | –
308.15 K, x1 = 0.7002 | 745.32 | –
308.15 K, x1 = 0.8003 | 755.35 | –
308.15 K, x1 = 0.8997 | 765.46 | –
308.15 K, x1 = 1 | 775.88 | –
313.15 K, x1 = 0.1 | – | 0.446
313.15 K, x1 = 0.1012 | 684.26 | –
313.15 K, x1 = 0.2 | – | 0.464
313.15 K, x1 = 0.2003 | 693.35 | –
313.15 K, x1 = 0.3001 | 702.64 | –
313.15 K, x1 = 0.3003 | – | 0.482
313.15 K, x1 = 0.3997 | – | 0.503
313.15 K, x1 = 0.4019 | 712.01 | –
313.15 K, x1 = 0.5002 | – | 0.524
313.15 K, x1 = 0.5008 | 721.61 | –
313.15 K, x1 = 0.6 | 731.36 | –
313.15 K, x1 = 0.6005 | – | 0.548
313.15 K, x1 = 0.6998 | 741.23 | –
313.15 K, x1 = 0.7002 | – | 0.573
313.15 K, x1 = 0.8 | 751.26 | –
313.15 K, x1 = 0.8003 | – | 0.601
313.15 K, x1 = 0.8997 | – | 0.63
313.15 K, x1 = 0.9 | 761.39 | –
313.15 K, x1 = 1 | 771.82 | 0.663
318.15 K, x1 = 0.1 | – | 0.429
318.15 K, x1 = 0.1012 | 680.05 | –
318.15 K, x1 = 0.2 | – | 0.445
318.15 K, x1 = 0.2003 | 689.16 | –
318.15 K, x1 = 0.3001 | 698.38 | –
318.15 K, x1 = 0.3003 | – | 0.461
318.15 K, x1 = 0.3997 | – | 0.481
318.15 K, x1 = 0.4019 | 707.8 | –
318.15 K, x1 = 0.5002 | – | 0.5
318.15 K, x1 = 0.5008 | 717.38 | –
318.15 K, x1 = 0.6 | 727.09 | –
318.15 K, x1 = 0.6005 | – | 0.522
318.15 K, x1 = 0.6998 | 737.02 | –
318.15 K, x1 = 0.7002 | – | 0.548
318.15 K, x1 = 0.8 | 747.05 | –
318.15 K, x1 = 0.8003 | – | 0.573
318.15 K, x1 = 0.8997 | – | 0.598
318.15 K, x1 = 0.9 | 757.21 | –
318.15 K, x1 = 1 | 767.69 | 0.628
323.15 K, x1 = 0.1 | – | 0.412
323.15 K, x1 = 0.1012 | 675.82 | –
323.15 K, x1 = 0.2 | – | 0.427
323.15 K, x1 = 0.2003 | 684.95 | –
323.15 K, x1 = 0.3001 | 694.19 | –
323.15 K, x1 = 0.3003 | – | 0.442
323.15 K, x1 = 0.3997 | – | 0.46
323.15 K, x1 = 0.4019 | 703.63 | –
323.15 K, x1 = 0.5002 | – | 0.478
323.15 K, x1 = 0.5008 | 713.22 | –
323.15 K, x1 = 0.6 | 722.95 | –
323.15 K, x1 = 0.6005 | – | 0.499
323.15 K, x1 = 0.6998 | 732.88 | –
323.15 K, x1 = 0.7002 | – | 0.522
323.15 K, x1 = 0.8 | 742.93 | –
323.15 K, x1 = 0.8003 | – | 0.546
323.15 K, x1 = 0.8997 | – | 0.569
323.15 K, x1 = 0.9 | 753.1 | –
323.15 K, x1 = 1 | 763.59 | 0.597
333.15 K, x1 = 0.1 | – | 0.383
333.15 K, x1 = 0.1012 | 667.27 | –
333.15 K, x1 = 0.2 | – | 0.396
333.15 K, x1 = 0.2003 | 676.43 | –
333.15 K, x1 = 0.3001 | 685.73 | –
333.15 K, x1 = 0.3003 | – | 0.409
333.15 K, x1 = 0.3997 | – | 0.425
333.15 K, x1 = 0.4019 | 695.2 | –
333.15 K, x1 = 0.5002 | – | 0.44
333.15 K, x1 = 0.5008 | 704.82 | –
333.15 K, x1 = 0.6 | 714.58 | –
333.15 K, x1 = 0.6005 | – | 0.457
333.15 K, x1 = 0.6998 | 724.55 | –
333.15 K, x1 = 0.7002 | – | 0.478
333.15 K, x1 = 0.8 | 734.62 | –
333.15 K, x1 = 0.8003 | – | 0.498
333.15 K, x1 = 0.8997 | – | 0.518
333.15 K, x1 = 0.9 | 744.81 | –
333.15 K, x1 = 1 | 755.35 | 0.541
343.15 K, x1 = 0.1 | – | 0.358
343.15 K, x1 = 0.1012 | 658.57 | –
343.15 K, x1 = 0.2 | – | 0.369
343.15 K, x1 = 0.2003 | 667.78 | –
343.15 K, x1 = 0.3001 | 677.13 | –
343.15 K, x1 = 0.3003 | – | 0.38
343.15 K, x1 = 0.3997 | – | 0.395
343.15 K, x1 = 0.4019 | 686.64 | –
343.15 K, x1 = 0.5002 | – | 0.408
343.15 K, x1 = 0.5008 | 696.31 | –
343.15 K, x1 = 0.6 | 706.12 | –
343.15 K, x1 = 0.6005 | – | 0.423
343.15 K, x1 = 0.6998 | 716.12 | –
343.15 K, x1 = 0.7002 | – | 0.441
343.15 K, x1 = 0.8 | 726.23 | –
343.15 K, x1 = 0.8003 | – | 0.458
343.15 K, x1 = 0.8997 | – | 0.476
343.15 K, x1 = 0.9 | 736.46 | –
343.15 K, x1 = 1 | 747.03 | 0.496
